Read-outs that look alike come from different tables or passages of the source.
How the values were obtained:
arterial thrombosis = assay: Arterial thrombosis induced by electrical stimulation of the left common carotid in rabbits, blood flow rate measured; assay type: in vivo; settings: rabbit; for effect on reduction in carotid blood flow rate: 45 min observation
Description: New Zealand male rabbits weighing 2.7 to 3 kg, obtained from the Lago breeding unit (France) were used. They were housed under standard conditions.
The formation of the thrombus was induced by external electrical stimulation of the left common carotid according to the Hladovec I. et al. method (Experimental arterial thrombosis in rats with continuous registration, Throm. Diathes. Haemor. 1971; 26: 407-410). The rabbits were anaesthetized with pentobarbital at the dose of 30 mg/kg iv. A segment of the left carotid artery was exposed and insulated by a piece of insulating film. Electrodes were inserted under the artery. A partial stricture inducing a 20% reduction in flow rate was made in the artery. The latter was then stimulated with the aid of a 2.5 mA current delivered by a constant current stimulator for 3 minutes. The thrombotic occlusion was evaluated by continuous measurement of the flow rate of blood in the carotid by means of an NARCO electromagnetic flow meter. This measurement was made over an observation period of 45 minutes.
For the treatment, solutions of SR 90107/ORG 31540 and of SR 121787A were prepared immediately before use in a saline solution. The solutions of SR 90107/ORG 31540 were injected by the IV route 5 minutes before induction of thrombosis in a volume of 1 ml/kg. SR 121787A was dadministered by the oral route 2 hours earlier.
The results were calculated and expressed as % reduction in blood flow rate at various times relative to time 0. They are grouped together in FIG. 1.

platelet aggregation = assay: Platelet aggregation induced by ADP or collagen; assay type: cell-based
thrombin = thrombin (Homo sapiens, UniProt P00734); assay: Activity on thrombin; assay type: biochemical
induced thromboses [1] = settings: rats; i.v. and s.c. administration; cited from earlier work
induced thromboses [2] = settings: rabbits; i.v. and s.c. administration; cited from earlier work
activated factor X (Xa) = assay: Neutralization of activated factor X (Xa) by antithrombin III; assay type: biochemical
[3] = Toxicity studies with repeated assays; settings: any animal species; repeated assays over 4 weeks with up to 10 mg/kg subcutaneously
induced thromboses [4] = settings: rats; i.v. and s.c. administration; cited from earlier work; remark: listed apart in the source
human plasma = assay: Activated partial thromboplastin time (APTT) test on human plasma
[5] = rats, cited from earlier work

## CCOC(=O)CCN(c1nc(-c2ccc(/C(N)=N/C(=O)OCC)cc2)cs1)C1CCN(CC(=O)OCC)CC1 [SR 121787A, ethyl N-(1-ethoxycarbonylmethylpiperidin-4-yl)-N-{4-[4-{(N-ethoxycarbonylimino)(amino)methyl}phenyl]thiazol-2-yl}-3-aminopropionate]
Arterial thrombosis; oral dose 10 mg/kg 2 hours before, sole active ingredient
  effect on course of the carotid output: did not significantly modify
Arterial thrombosis; oral dose 20 mg/kg 2 hours before, sole active ingredient
  effect on drop of the carotid output: almost completely inhibited

## methyl O-(2-deoxy-2-sulphoamino-6-O-sulfo-α-D-glucopyranosyl)-(1→)-O-(β-D-glucopyranosyluronic acid)-(1→4)-O-(2-deoxy-2-sulphoamino-3,6-di-O-sulpho-α-D-glucopyranosyl-(1→4)-O-(2-O-sulpho-Ε-L-idopyranosyl-uronic acid)-(1→4)-2-deoxy-2-sulphoamino-6-O-sulpho-α-D-glucopyranoside [SR 90107/ORG 31540]
Arterial thrombosis; 300 nmol/kg IV 5 minutes before induction of thrombosis
  effect on reduction in carotid blood flow rate: no influence
Arterial thrombosis; 600 nmol/kg IV 5 minutes before induction of thrombosis
  effect on reduction in carotid blood flow rate: reduced it slightly but not significantly
Platelet aggregation; ADP
  potentiation of platelet aggregation induced by ADP: does not potentiate
Platelet aggregation; collagen
  potentiation of platelet aggregation induced by collagen: does not potentiate
thrombin
  activity on thrombin: completely devoid
Induced thromboses [1]
  antithrombotic effects: demonstrated
Induced thromboses [2]
  antithrombotic effects: demonstrated
Activated factor X (Xa)
  catalysis of neutralization of factor Xa by antithrombin III: can be catalysed
[3]
  toxicological effect: No toxicological effect
Induced thromboses [4]
  antithrombotic effects: demonstrated
DNA repair test
  mutagenicity in the DNA repair test: not mutagenic
Human plasma
  modification of activated partial thromboplastin time (APTT): hardly modifies
[5]; 21.7 mg/kg (high dose)
  loss of blood: identical to that observed with 200 units anti-Xa/kg of heparin
[5]
  increase of blood loss compared with standard heparin or LMWHs: only slightly increases blood loss
AMES test
  mutagenicity in the AMES test: not mutagenic

— patent US6541488B1, “Compositions for treating arterial thrombosis and a factor Xa inhibitor” (Sanofi-Synthelabo, priority 1997, dated 2003)
